For experiment [1], the target named is Recombinant wild type LRRK2 protein (Homo sapiens (Human), UniProt Q5S007). As to the kind of experiment: LRRK2 kinase activity, LanthaScreen TR-FRET assay (wild type). The following applies: LRRKtide 400 nM, 25 μM ATP, 60 min; read-out: LRRK2 WT IC50. The format is biochemical. The gist of the method: (§1)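 Recombinant human wild-type or G2019S LRRK2 phosphorylated fluorescein-labelled LRRKtide (ERM-based) with ATP and serially diluted compound for 60 min at room temperature.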

The target in experiment [2] is Recombinant G2019S-LRRK2 protein (Homo sapiens (Human), UniProt Q5S007, G2019S). In words: LRRK2 kinase activity, LanthaScreen TR-FRET assay (G2019S). The format is biochemical. The following applies: LRRKtide 400 nM, 25 μM ATP, 60 min. The method, boiled down:
as §1
In general terms: In TR-FRET formats the signal depends on donor and acceptor labels being close together.

Molecules are shown by their SMILES.

Sequence of Recombinant G2019S-LRRK2 protein (Q5S007 whole entry G2019S): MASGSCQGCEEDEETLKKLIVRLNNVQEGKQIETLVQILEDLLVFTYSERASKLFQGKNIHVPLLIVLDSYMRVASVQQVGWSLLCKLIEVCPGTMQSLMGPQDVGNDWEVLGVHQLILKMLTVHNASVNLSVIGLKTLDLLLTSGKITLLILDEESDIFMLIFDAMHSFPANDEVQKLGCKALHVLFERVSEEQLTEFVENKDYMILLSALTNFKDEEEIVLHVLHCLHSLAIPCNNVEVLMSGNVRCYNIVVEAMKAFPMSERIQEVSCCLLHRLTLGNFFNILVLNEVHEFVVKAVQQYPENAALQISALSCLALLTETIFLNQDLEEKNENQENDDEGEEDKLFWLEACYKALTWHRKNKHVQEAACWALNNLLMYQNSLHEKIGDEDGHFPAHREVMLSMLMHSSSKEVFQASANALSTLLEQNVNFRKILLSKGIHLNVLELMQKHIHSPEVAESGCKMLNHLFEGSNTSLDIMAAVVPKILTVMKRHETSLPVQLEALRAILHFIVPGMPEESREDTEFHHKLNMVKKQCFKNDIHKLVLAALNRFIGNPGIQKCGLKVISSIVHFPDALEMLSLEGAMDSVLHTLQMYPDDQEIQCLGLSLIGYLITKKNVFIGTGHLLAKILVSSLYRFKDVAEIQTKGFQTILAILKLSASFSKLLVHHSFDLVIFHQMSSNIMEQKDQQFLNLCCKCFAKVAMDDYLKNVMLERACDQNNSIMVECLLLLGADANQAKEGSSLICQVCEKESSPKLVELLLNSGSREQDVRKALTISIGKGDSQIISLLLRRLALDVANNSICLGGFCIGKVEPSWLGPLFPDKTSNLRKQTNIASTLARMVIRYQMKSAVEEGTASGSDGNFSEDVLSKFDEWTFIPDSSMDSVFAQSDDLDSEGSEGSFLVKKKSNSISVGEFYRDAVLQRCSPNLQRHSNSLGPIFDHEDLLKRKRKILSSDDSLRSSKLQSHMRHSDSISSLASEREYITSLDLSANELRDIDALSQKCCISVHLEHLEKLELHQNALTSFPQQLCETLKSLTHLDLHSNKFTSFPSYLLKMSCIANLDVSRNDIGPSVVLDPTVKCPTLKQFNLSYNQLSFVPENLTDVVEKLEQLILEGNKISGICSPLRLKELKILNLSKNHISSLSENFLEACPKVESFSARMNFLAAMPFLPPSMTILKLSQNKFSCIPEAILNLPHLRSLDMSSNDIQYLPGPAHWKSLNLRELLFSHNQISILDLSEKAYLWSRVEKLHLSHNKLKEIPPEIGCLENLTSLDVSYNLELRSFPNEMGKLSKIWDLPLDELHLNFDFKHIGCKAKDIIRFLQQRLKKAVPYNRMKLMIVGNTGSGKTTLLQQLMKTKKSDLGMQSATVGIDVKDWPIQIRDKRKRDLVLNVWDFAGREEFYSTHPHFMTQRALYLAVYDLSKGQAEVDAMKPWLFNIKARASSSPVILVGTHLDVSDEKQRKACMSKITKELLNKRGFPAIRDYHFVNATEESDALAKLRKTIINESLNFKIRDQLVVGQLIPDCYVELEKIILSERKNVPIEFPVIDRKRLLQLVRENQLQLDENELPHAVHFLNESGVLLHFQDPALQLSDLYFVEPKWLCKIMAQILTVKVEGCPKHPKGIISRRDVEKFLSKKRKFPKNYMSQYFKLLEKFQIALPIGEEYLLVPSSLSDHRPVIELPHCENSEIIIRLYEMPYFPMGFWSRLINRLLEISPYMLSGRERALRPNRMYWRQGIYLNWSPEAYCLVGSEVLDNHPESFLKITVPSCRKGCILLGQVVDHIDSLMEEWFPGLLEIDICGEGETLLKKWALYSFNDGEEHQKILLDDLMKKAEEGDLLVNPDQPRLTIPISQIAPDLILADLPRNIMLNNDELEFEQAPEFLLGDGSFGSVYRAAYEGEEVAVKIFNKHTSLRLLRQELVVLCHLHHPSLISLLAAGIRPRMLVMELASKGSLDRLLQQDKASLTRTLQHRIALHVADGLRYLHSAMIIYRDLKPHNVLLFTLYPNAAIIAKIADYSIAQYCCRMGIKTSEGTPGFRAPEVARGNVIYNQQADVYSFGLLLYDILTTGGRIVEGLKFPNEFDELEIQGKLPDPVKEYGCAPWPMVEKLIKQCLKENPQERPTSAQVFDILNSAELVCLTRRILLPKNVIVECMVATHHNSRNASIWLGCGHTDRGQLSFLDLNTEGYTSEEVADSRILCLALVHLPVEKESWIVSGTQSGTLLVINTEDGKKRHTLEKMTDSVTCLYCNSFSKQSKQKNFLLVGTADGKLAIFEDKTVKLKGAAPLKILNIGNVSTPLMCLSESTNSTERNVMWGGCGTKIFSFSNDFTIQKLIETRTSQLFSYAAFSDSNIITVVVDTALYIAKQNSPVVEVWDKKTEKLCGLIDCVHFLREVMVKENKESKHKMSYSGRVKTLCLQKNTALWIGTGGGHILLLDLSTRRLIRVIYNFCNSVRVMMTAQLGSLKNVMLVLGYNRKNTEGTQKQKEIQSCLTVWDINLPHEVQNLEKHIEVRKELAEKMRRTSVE
Sequence of Recombinant wild type LRRK2 protein (Q5S007 whole entry): as the sequence (Q5S007 whole entry G2019S) above, with S2019G counted along it

What is called IC50 is the concentration that inhibits the measured activity by half. Turning to `CCc1nc(C(=O)Nc2ccc3[nH]nc(C4CC4)c3c2)c(C)c(C)c1C#N` [Example 333, 5-Cyano-N-(3-cyclopropyl-1H-indazol-5-yl)-6-ethyl-3,4-dimethylpicolinamide], the figures for the IC50 in experiment [1] and in experiment [2] were 100 to 1000 nM and < 100 nM, respectively.

For the compound `Cc1c(C(=O)Nc2ccc3[nH]nc(C4CC4)c3c2)nc(C2CC2)c(C#N)c1C` [Example 334, 5-Cyano-6-cyclopropyl-N-(3-cyclopropyl-1H-indazol-5-yl)-3,4-dimethylpicolinamide], the results for the IC50 in experiment [1] and in experiment [2] were 100 to 1000 nM and < 100 nM, respectively.

In the case of `Cc1c(C#N)cnc(C(=O)Nc2ccc3[nH]nc(-c4cnn(C5CC5)c4)c3c2)c1C` [Example 335, 5-Cyano-N-(3-(1-cyclopropyl-1H-pyrazol-4-yl)-1H-indazol-5-yl)-3,4-dimethylpicolinamide], the IC50 in experiment [1] and in experiment [2] was < 100 nM each time.

Source of the values: patent US11427558B1, “Indazoles and azaindazoles as LRRK2 inhibitors” (ESCAPE Bio, Inc., priority 2019, dated 2022).
